Patent US5741671A, “Isolation cloning and expression of transmembrane water channel aquaporin 1(AQP1)” (The Johns Hopkins University, priority 1995, dated 1998)

Biological target: T1, AQP1 (Homo sapiens, UniProt P29972)
T1 construct: Human erythrocytes were obtained from blood-bank units stored up to 5 weeks; from tissue; host or cells: human erythrocytes (blood-bank units; small-scale preparations from freshly drawn whole blood)
T1 sequence (P29972 2-269 limits assumed): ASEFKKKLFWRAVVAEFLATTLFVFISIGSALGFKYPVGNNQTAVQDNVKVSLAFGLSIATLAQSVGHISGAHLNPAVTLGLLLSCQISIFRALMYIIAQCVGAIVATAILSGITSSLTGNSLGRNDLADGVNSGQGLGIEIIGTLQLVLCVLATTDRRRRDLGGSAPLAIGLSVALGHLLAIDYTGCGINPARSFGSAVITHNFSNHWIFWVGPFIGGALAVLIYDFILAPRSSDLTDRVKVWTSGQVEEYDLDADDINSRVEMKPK
Test: Stopped-flow osmotic water permeability of AQP1 proteoliposomes
Assay type: biochemical
Source text: Preparation AQP1-containing proteoliposomes. Crude Escherichia coli lipid was obtained from Avanti Polar Lipids, Inc., and neutral lipid was removed by acetone/ether wash (Ambudkar & Maloney, 1986, Methods. Enzymol. 125:558-563). The purified E. coli bulk phospholipid is composed of phosphalidylethanolamine (70%), phosphatidylglycerol (15%), and cardiolipin (15%) (Chen & Wilson, […], Proc. Natl. Acad. Sci. USA 83:2652-2656). E. coli bulk phospholipid was employed since it has previously been used for functional reconstitution of several transport proteins including the glucose transporter of RBCs (Maloney & Ambudkar, 1989, Arch. Biochem. Biophys. 269:1-10; Chen et al., 1986, Proc. Natl. Acad. Sci. USA 83:2652-2656).
Highly purified AQP1 protein was incorporated into proteoliposomes by detergent dilution; control liposomes were formed in an identical manner without AQP1 protein.
Purified AQP1 was stored overnight at 0° C. or frozen for several days at -80° C. prior to reconstitution. Reconstitution into proteoliposomes was carried out in a final volume of 1 ml containing 60-90 μg of purified AQP1 protein in chromatography buffer, 9 mg of bath-sonicated E. coli phospholipid, 1.25% (w/v) octyl glucoside, and 50 mM Tris-HCl (pH 7.5). The mixture was briefly blended on a vortex mixer and incubated for 20 minutes on ice. Proteoliposomes (or liposomes prepared without protein) were formed at room temperature by rapidly injecting the mixture into 25 ml of buffer A [50 mM MOPS, pH 7.5, 150 mM N-methyl-D-glucamine (NMDG) chloride also containing 10-15 mM carboxyfluorescein, 1 mM dithiothreitol, and 0.5 mM PMSF]. For the measurement of proton permeability, proteoliposomes and liposomes were loaded with buffer B (5 mM MOPS, pH 7.5, 150 mM KCl, 0.5 mM carboxyfluorescein, 1 mM dithiothreitol, and 0.5 mM PMSF). The suspension was incubated for 20 minutes at room temperature. Proteoliposomes or liposomes were collected by centrifugation for 1 hour at 123000×g in a Beckman Type 42.1 rotor at 4° C. The pellet was resuspended in 8 ml of buffer A or B and then centrifuged for 1 hour at 152000×g in a Beckman Type 50 Ti rotor. Proteoliposomes or liposomes were resuspended in 300 μl of buffer A or B and stored at 4° C. for 16-24 hours. Typically 50% (54±6%, n=5) of the AQP1 protein and 70% of the phospholipid were recovered in proteoliposomes. The lipid to protein ratio was in the range of 120:1 to 219:1. […] Protein and phospholipid were measured as described by Ambudkar & Maloney (J. Biol. Chem., 1986, 261:10079-10086).
Permeability measurements. Membrane permeability measurements (Pf) were measured by exposing AQP1 proteoliposomes or control liposomes to an osmotic gradient by rapid mixing with an equal volume of another solution containing buffer A plus sufficient sucrose to increase osmolality in the mixed solutions to a value 120% of that in the original solution. This was performed with a stopped-flow fluorometer (SF.17MV, Applied Photophysics, Leatherhead, U.K.) with a measured dead time of 0.7 ms. […] Extravesicular carboxyfluorescein fluorescence was completely quenched using anti-fluorescein antibody (Harris et al., 1990, Am. J. Physiol. 259:F366-F371). Within the range of osmolalities used in these experiments, the vesicles acted as perfect osmometers, and relative volume (absolute volume divided by initial volume) was linearly related to relative fluorescence (absolute fluorescence divided by initial fluorescence). […]

| reversal of inhibition by mercurial reagents (5 mM β-mercaptoethanol after pCMBS or HgCl2) | Structure (SMILES) | Pf after mercurial treatment (CHIP28 proteoliposomes, 1 mM HgCl2, 3 minutes at 37° C.) [cm/s] | time to complete inhibition of Pf (CHIP28 proteoliposomes, 1 mM, 37° C.) [min] |
| --- | --- | --- | --- |
| completely reversed | OCCS [β-mercaptoethanol] |  |  |
|  | [Cl][Hg][Cl] [HgCl2] | 0.007±0.003 | ≤ 5 |
